{
  "source": "patent US11446287B2",
  "about": "“Compounds and methods for EP300 or CBP modulation and indications therefor” (Opna Immuno-Oncology SA, priority 2019, dated 2022)",
  "data": [
    {"target": "T1, Recombinant human EP300 containing the bromodomain (EP300-BD (1040-1161)) (Homo sapiens, UniProt Q09472)", "T1 construct": "Recombinant human EP300 bromodomain (EP300-BD (1040-1161)); made in house; host or cells: E. coli BL21-CodonPlus (DE3), modified pET vector", "T1 sequence (Q09472 1040-1161)": "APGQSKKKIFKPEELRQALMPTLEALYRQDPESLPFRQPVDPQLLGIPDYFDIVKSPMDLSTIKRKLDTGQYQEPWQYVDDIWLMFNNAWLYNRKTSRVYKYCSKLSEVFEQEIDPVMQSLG", "experiment": "EP300 Alphascreen binding assay", "how_it_was_run": "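Displacement of a biotinylated acetyl-K56 histone H3 peptide from the N-His bromodomain construct (1040-1161) measured by AlphaScreen proximity, beads at 7.5 μg/ml final, read 60 min after addition. Protein, peptide and compound first incubated 1 h at room temperature, pH 7.5 HEPES buffer; IC50 by four-parameter logistic fit.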", "units": {"IC50": "µM"}, "values": [
      {"compound": "Cc1noc(C)c1-c1cnc2c(c1)c(-c1ccc(C(=O)O)cc1)cn2C(C)c1ncccn1", "note": "(stereo not drawn) [P-0013, 4-(5-(3,5-dimethylisoxazol-4-yl)-1-(1-(pyrimidin-2-yl)ethyl)-1H-pyrrolo[2,3-b]pyridin-3-yl)benzoic acid]", "IC50": "0.0001 to 1"},
      {"compound": "Cc1noc(C)c1-c1cnc2c(c1)c(-c1ccc(C(=O)O)cc1)cn2C(C)c1ccc(F)cn1", "note": "(stereo not drawn) [P-0014, 4-(5-(3,5-dimethylisoxazol-4-yl)-1-(1-(5-fluoropyridin-2-yl)ethyl)-1H-pyrrolo[2,3-b]pyridin-3-yl)benzoic acid]", "IC50": "0.0001 to 1"},
      {"compound": "Cc1noc(C)c1-c1cnc2c(c1)c(-c1cccc(C(=O)O)c1)cn2C(c1ccccn1)C1CCCC1", "note": "(stereo not drawn) [P-0015, 3-(1-(cyclopentyl(pyridin-2-yl)methyl)-5-(3,5-dimethylisoxazol-4-yl)-1H-pyrrolo[2,3-b]pyridin-3-yl)benzoic acid]", "IC50": "0.0001 to 1"},
      {"compound": "Cc1noc(C)c1-c1cnc2c(c1)c(-c1ccc(F)c(C(=O)O)c1)cn2C(c1ccccn1)C1CCCC1", "note": "(stereo not drawn) [P-0016, 5-(1-(cyclopentyl(pyridin-2-yl)methyl)-5-(3,5-dimethylisoxazol-4-yl)-1H-pyrrolo[2,3-b]pyridin-3-yl)-2-fluorobenzoic acid]", "IC50": "0.0001 to 1"},
      {"compound": "Cc1noc(C)c1-c1cnc2c(c1)c(-c1ccnc(C(=O)O)c1)cn2C(c1ccccn1)C1CCCC1", "note": "(stereo not drawn) [P-0017, 4-(1-(cyclopentyl(pyridin-2-yl)methyl)-5-(3,5-dimethylisoxazol-4-yl)-1H-pyrrolo[2,3-b]pyridin-3-yl)picolinic acid]", "IC50": "0.0001 to 1"},
      {"compound": "Cc1noc(C)c1-c1cnc2c(c1)c(-c1cccc(CC(=O)O)c1)cn2C(c1ccccn1)C1CCCC1", "note": "(stereo not drawn) [P-0018, 2-(3-(1-(cyclopentyl(pyridin-2-yl)methyl)-5-(3,5-dimethylisoxazol-4-yl)-1H-pyrrolo[2,3-b]pyridin-3-yl)phenyl)acetic acid]", "IC50": "0.0001 to 1"},
      {"compound": "Cc1noc(C)c1-c1cnc2c(c1)c(-c1ccncc1)cn2C(c1ccccn1)C1CCCC1", "note": "(stereo not drawn) [P-0019, 4-(1-(cyclopentyl(pyridin-2-yl)methyl)-3-(pyridin-4-yl)-1H-pyrrolo[2,3-b]pyridin-5-yl)-3,5-dimethylisoxazole]", "IC50": "1 to 8"},
      {"compound": "Cc1noc(C)c1-c1cnc2c(c1)c(-c1ccc(C(=O)O)cc1OC1CC1)cn2[C@@H](C)c1ccccn1", "note": "[P-0170, (S)-3-cyclopropoxy-4-(5-(3,5-dimethylisoxazol-4-yl)-1-(1-(pyridin-2-yl)ethyl)-1H-pyrrolo[2,3-b]pyridin-3-yl)benzoic acid]", "IC50": "0.0001 to 1"},
      {"compound": "Cc1noc(C)c1-c1cnc2c(-c3ccc(C(=O)O)cc3C#CC3CC3)cn([C@@H](C)c3ccccn3)c2c1", "note": "[P-0171, (S)-3-(cyclopropylethynyl)-4-(6-(3,5-dimethylisoxazol-4-yl)-1-(1-(pyridin-2-yl)ethyl)-1H-pyrrolo[3,2-b]pyridin-3-yl)benzoic acid]", "IC50": "0.0001 to 1"},
      {"compound": "COc1ccc(C(=O)O)cc1-c1cn(C(C)(c2ccccn2)c2ccccn2)c2cc(-c3c(C)noc3C)cnc12", "note": "[P-0172, 3-(1-(1,1-di(pyridin-2-yl)ethyl)-6-(3,5-dimethylisoxazol-4-yl)-1H-pyrrolo[3,2-b]pyridin-3-yl)-4-methoxybenzoic acid]", "IC50": "1 to 8"},
      {"compound": "CCOc1cc(C(=O)O)cc(OCC)c1-n1cc(-c2cccnc2)c2ncc(-c3c(C)noc3C)cc21", "note": "[P-0173, 4-(6-(3,5-dimethylisoxazol-4-yl)-3-(pyridin-3-yl)-1H-pyrrolo[3,2-b]pyridin-1-yl)-3,5-diethoxybenzoic acid]", "IC50": "0.0001 to 1"},
      {"compound": "CCOc1cc(C(=O)O)cc(OC(C)C)c1-c1cn([C@@H](C)c2ccccn2)c2ncc(-c3c(C)noc3C)cc12", "note": "[P-0174, (S)-4-(5-(3,5-dimethylisoxazol-4-yl)-1-(1-(pyridin-2-yl)ethyl)-1H-pyrrolo[2,3-b]pyridin-3-yl)-3-ethoxy-5-isopropoxybenzoic acid]", "IC50": "0.0001 to 1"},
      {"compound": "Cc1noc(C)c1-c1cnc2c(c1)c(-c1ccc(C(=O)O)cc1OC(F)(F)F)cn2-c1cccnc1", "note": "[P-0175, 4-(5-(3,5-dimethylisoxazol-4-yl)-1-(pyridin-3-yl)-1H-pyrrolo[2,3-b]pyridin-3-yl)-3-(trifluoromethoxy)benzoic acid]", "IC50": "0.0001 to 1"},
      {"compound": "COc1ccncc1-n1cc(-c2ccc(C(=O)O)cc2OC(F)(F)F)c2cc(-c3c(C)noc3C)cnc21", "note": "[P-0176, 4-(5-(3,5-dimethylisoxazol-4-yl)-1-(4-methoxypyridin-3-yl)-1H-pyrrolo[2,3-b]pyridin-3-yl)-3-(trifluoromethoxy)benzoic acid]", "IC50": "0.0001 to 1"},
      {"compound": "Cc1noc(C)c1-c1cnc2c(c1)c(-c1ccc(C(=O)O)cc1OC(F)(F)F)cn2-c1cnccc1Cl", "note": "[P-0177, 4-(1-(4-chloropyridin-3-yl)-5-(3,5-dimethylisoxazol-4-yl)-1H-pyrrolo[2,3-b]pyridin-3-yl)-3-(trifluoromethoxy)benzoic acid]", "IC50": "0.0001 to 1"},
      {"compound": "Cc1noc(C)c1-c1cnc2c(c1)c(-c1ccc(C(=O)O)cc1C#CC1CC1)cn2[C@@H](C)c1ccccn1", "note": "[P-0178, (S)-3-(cyclopropylethynyl)-4-(5-(3,5-dimethylisoxazol-4-yl)-1-(1-(pyridin-2-yl)ethyl)-1H-pyrrolo[2,3-b]pyridin-3-yl)benzoic acid]", "IC50": "1 to 8"},
      {"compound": "Cc1noc(C)c1-c1cnc2c(c1)c(-c1ccc(C(=O)O)cc1OC1CCC1)cn2[C@@H](C)c1ccccn1", "note": "[P-0179, (S)-3-cyclobutoxy-4-(5-(3,5-dimethylisoxazol-4-yl)-1-(1-(pyridin-2-yl)ethyl)-1H-pyrrolo[2,3-b]pyridin-3-yl)benzoic acid]", "IC50": "0.0001 to 1"},
      {"compound": "Cc1noc(C)c1-c1cnc2c(c1)c(-c1ccc(C(=O)O)cc1OC(F)(F)F)cn2-c1ncccc1C(F)(F)F", "note": "[P-0180, 4-(5-(3,5-dimethylisoxazol-4-yl)-1-(3-(trifluoromethyl)pyridin-2-yl)-1H-pyrrolo[2,3-b]pyridin-3-yl)-3-(trifluoromethoxy)benzoic acid]", "IC50": "0.0001 to 1"},
      {"compound": "Cc1noc(C)c1-c1cnc2c(c1)c(-c1ccc(C(=O)O)cc1C1CC1)cn2[C@@H](C)c1ccccn1", "note": "[P-0181, (S)-3-cyclopropyl-4-(5-(3,5-dimethylisoxazol-4-yl)-1-(1-(pyridin-2-yl)ethyl)-1H-pyrrolo[2,3-b]pyridin-3-yl)benzoic acid]", "IC50": "0.0001 to 1"},
      {"compound": "Cc1noc(C)c1-c1cnc2c(c1)c(-c1ccc(C(=O)O)cc1OC(F)(F)F)cn2-c1ncccc1F", "note": "[P-0182, 4-(5-(3,5-dimethylisoxazol-4-yl)-1-(3-fluoropyridin-2-yl)-1H-pyrrolo[2,3-b]pyridin-3-yl)-3-(trifluoromethoxy)benzoic acid]", "IC50": "0.0001 to 1"},
      {"compound": "Cc1noc(C)c1-c1cnc2c(c1)c(-c1ccc(C(=O)O)cc1OC(F)(F)F)cn2-c1ncccc1Cl", "note": "[P-0183, 4-(1-(3-chloropyridin-2-yl)-5-(3,5-dimethylisoxazol-4-yl)-1H-pyrrolo[2,3-b]pyridin-3-yl)-3-(trifluoromethoxy)benzoic acid]", "IC50": "0.0001 to 1"},
      {"compound": "CCOc1cc(C(=O)O)cc(OCC)c1-n1cc(-c2ccc(F)cc2)c2ncc(-c3c(C)noc3C)cc21", "note": "[P-0184, 4-(6-(3,5-dimethylisoxazol-4-yl)-3-(4-fluorophenyl)-1H-pyrrolo[3,2-b]pyridin-1-yl)-3,5-diethoxybenzoic acid]", "IC50": "0.0001 to 1"},
      {"compound": "CCOc1cc(C(=O)O)cc(OCC)c1-n1cc(-c2cccc(Cl)c2)c2ncc(-c3c(C)noc3C)cc21", "note": "[P-0185, 4-(3-(3-chlorophenyl)-6-(3,5-dimethylisoxazol-4-yl)-1H-pyrrolo[3,2-b]pyridin-1-yl)-3,5-diethoxybenzoic acid]", "IC50": "0.0001 to 1"},
      {"compound": "CCOc1cc(C(=O)O)cc(OCC)c1-n1cc(-c2ccc(F)cc2F)c2ncc(-c3c(C)noc3C)cc21", "note": "[P-0186, 4-(3-(2,4-difluorophenyl)-6-(3,5-dimethylisoxazol-4-yl)-1H-pyrrolo[3,2-b]pyridin-1-yl)-3,5-diethoxybenzoic acid]", "IC50": "0.0001 to 1"},
      {"compound": "CCOc1cc(C(=O)O)cc(OCC)c1-n1cc(Cc2ccccn2)c2ncc(-c3c(C)noc3C)cc21", "note": "[P-0187, 4-(6-(3,5-dimethylisoxazol-4-yl)-3-(pyridin-2-ylmethyl)-1H-pyrrolo[3,2-b]pyridin-1-yl)-3,5-diethoxybenzoic acid]", "IC50": "0.0001 to 1"},
      {"compound": "Cc1noc(C)c1-c1cnc2c(c1)c(-c1ccc(C(=O)O)cc1OC(F)(F)F)cn2-c1ccccc1", "note": "[P-0188, 4-(5-(3,5-dimethylisoxazol-4-yl)-1-phenyl-1H-pyrrolo[2,3-b]pyridin-3-yl)-3-(trifluoromethoxy)benzoic acid]", "IC50": "0.0001 to 1"},
      {"compound": "Cc1ccncc1-n1cc(-c2ccc(C(=O)O)cc2OC(F)(F)F)c2cc(-c3c(C)noc3C)cnc21", "note": "[P-0189, 4-(5-(3,5-dimethylisoxazol-4-yl)-1-(4-methylpyridin-3-yl)-1H-pyrrolo[2,3-b]pyridin-3-yl)-3-(trifluoromethoxy)benzoic acid]", "IC50": "0.0001 to 1"},
      {"compound": "CCOc1cc(C(=O)O)cc(OCC)c1-n1cc(CC2CCC2)c2ncc(-c3c(C)nnn3C)cc21", "note": "[P-0190, 4-(3-(cyclobutylmethyl)-6-(1,4-dimethyl-1H-1,2,3-triazol-5-yl)-1H-pyrrolo[3,2-b]pyridin-1-yl)-3,5-diethoxybenzoic acid]", "IC50": "0.0001 to 1"},
      {"compound": "Cc1noc(C)c1-c1cnc2c(c1)c(-c1ccc(C(=O)O)cc1OC(F)(F)F)cn2CCN1CCOCC1", "note": "[P-0191, 4-(5-(3,5-dimethylisoxazol-4-yl)-1-(2-morpholinoethyl)-1H-pyrrolo[2,3-b]pyridin-3-yl)-3-(trifluoromethoxy)benzoic acid]", "IC50": "0.0001 to 1"},
      {"compound": "CCOc1cc(C(=O)O)cc(OCC)c1-n1cc(-c2ccc(C3CC3)nc2)c2ncc(-c3c(C)noc3C)cc21", "note": "[P-0192, 4-(3-(6-cyclopropylpyridin-3-yl)-6-(3,5-dimethylisoxazol-4-yl)-1H-pyrrolo[3,2-b]pyridin-1-yl)-3,5-diethoxybenzoic acid]", "IC50": "0.0001 to 1"}
    ]}
  ]
}
